Experimental findings from ChEMBL document CHEMBL6134867, “Design and Synthesis of FR-β Targeting Chimeric Molecules for Reprogramming Tumor-Associated Macrophages Using 6-Substituted Pyrrolo[2,3-d]pyrimidines as Targeting Ligands” (J Med Chem, 2025) are described below.

Data set [1] relates to 4T1. In words: Cytotoxicity against mouse 4T1 cells assessed as reduction in cell viability incubated for 24 hrs by CCK-8 assay. The format is toxicity, cell-based. The conditions noted are these: 4t1, 24 h.
The subject of data set [2] is BMDM. In words: Induction of macrophage repolarization in FR-beta expressing IL-4 differentiated M2 phenotype mouse BMDM cells assessed as reprogramming to M1 phenotype by measuring downregulation of Arg1 mRNA expression at 10 nM incubated for 24 hrs by RT-qPCR analysis. It counts as functional, cell-based. A general note: In qPCR the cycle at which signal appears reflects the starting amount.

Data set [3] can be described thus: Toxicity against BALB/c mouse xenografted with mouse 4T1 cells assessed as pathological changes in spleen at 1 mg/kg, iv qd for 14 days by Hematoxylin-Eosin staining based analysis. It counts as organism-based. The following applies: in vivo, 336 h, time 14 day.
A short description of data set [4]: Toxicity against BALB/c mouse xenografted with mouse 4T1 cells assessed as pathological changes in kidney at 1 mg/kg, iv qd for 14 days by Hematoxylin-Eosin staining based analysis. It counts as organism-based. The following applies: in vivo, 336 h, time 14 day.
Data set [5] in a line: Toxicity against BALB/c mouse xenografted with mouse 4T1 cells assessed as pathological changes in liver at 1 mg/kg, iv qd for 14 days by Hematoxylin-Eosin staining based analysis. The format is organism-based. The conditions noted are these: in vivo, 336 h, time 14 day.
Data set [6] in a line: Toxicity against BALB/c mouse xenografted with mouse 4T1 cells assessed as effect on body weight at 1 mg/kg, iv qd for 14 days and measured every day. The following applies: in vivo, 336 h, time 14 day. The format is organism-based.
Data set [7] can be described thus: Stability of the compound in PBS measured at 4 degC and for 15 days. The format is physicochemical. The conditions noted are these: time 15 day, read-out: Stability.
For data set [8], the system named is 4T1. In words: Antitumor activity against mouse 4T1 cells xenografted in BALB/c mouse assessed as inhibition of tumor growth at 1 mg/kg, iv qd for 14 days and measured every day by digital caliper analysis. The conditions noted are these: time 14.0 day. The format is functional, organism-based.
Data set [9] has as its system Mus musculus. In words: In vivo transition from anti-inflammatory to pro-inflammatory phenotypes in BALB/c mouse xenografted with mouse 4T1 cells assessed as CD4+ cells population at 1 mg/kg, iv qd for 14 days by flow cytometry. The format is functional, organism-based. The conditions noted are these: time 14.0 day. (In general: In flow cytometry, cells or beads pass a laser one at a time.)

A short description of data set [10]: Prodrug release assessed as IMDQ formation in presence of 10 mM GSH and measured after 1 to 8 hrs by HPLC analysis. The conditions noted are these: time 1-8 hrs. The format is ADME.
For data set [11], the system named is Mus musculus. In words: In vivo transition from anti-inflammatory to pro-inflammatory phenotypes in BALB/c mouse xenografted with mouse 4T1 cells assessed as upregulation in proportion of CD8+ cells at 1 mg/kg, iv qd for 14 days by flow cytometry. It counts as functional, organism-based. The following applies: time 14.0 day.
Data set [12] concerns BMDM. In words: Induction of macrophage repolarization in FR-beta expressing IL-4 differentiated M2 phenotype mouse BMDM cells assessed as reprogramming to M1 phenotype by measuring downregulation of CD206 expression at 10 nM incubated for 24 hrs by western blot analysis. The format is functional, cell-based.
Data set [13] has as its system BMDM. In words: Induction of macrophage repolarization in FR-beta expressing IL-4 differentiated M2 phenotype mouse BMDM cells assessed as reprogramming to M1 phenotype by measuring upregulation of iNOS expression at 10 nM incubated for 24 hrs by western blot analysis. The format is functional, cell-based. On the technique in general: Immunoblotting shows a protein as a band on a membrane.

Data set [14] in a line: Cytotoxicity against mouse BMDM cells assessed as reduction in cell viability incubated for 24 hrs by CCK-8 assay. The format is toxicity, cell-based.
In data set [15] the test system is BMDM. In words: Induction of macrophage repolarization in FR-beta expressing IL-4 differentiated M2 phenotype mouse BMDM cells assessed as reprogramming to M1 phenotype by measuring downregulation of CD206 mRNA expression at 10 nM incubated for 24 hrs by RT-qPCR analysis. It counts as functional, cell-based.
The subject of data set [16] is Mus musculus. In words: In vivo transition from anti-inflammatory to pro-inflammatory phenotypes in BALB/c mouse xenografted with mouse 4T1 cells assessed as decrease in proportion of Ly6C+ and Ly6G+ cells within CD45+ population at 1 mg/kg, iv qd for 14 days by flow cytometry. The format is functional, organism-based. The following applies: time 14.0 day.
The subject of data set [17] is BMDM. In words: Induction of macrophage repolarization in FR-beta expressing IL-4 differentiated M2 phenotype mouse BMDM cells assessed as reprogramming to M1 phenotype by measuring downregulation of Arg1 expression at 10 nM incubated for 24 hrs by western blot analysis. It counts as functional, cell-based.
A short description of data set [18]: Stability of the compound in mouse plasma at 5 uM and measured at 37 degC and for up to 12 hrs by HPLC analysis. The conditions noted are these: for remaining at 12 h, 5 µM: read-out: Stability. The format is ADME, cell-free.
Data set [19] in a line: Toxicity against BALB/c mouse xenografted with mouse 4T1 cells assessed as heightened inflammatory response in lung at 1 mg/kg, iv qd for 14 days by Hematoxylin-Eosin staining based analysis. It counts as organism-based. The conditions noted are these: in vivo, 336 h, time 14 day.
Data set [20] concerns BMDM. In words: Induction of macrophage repolarization in FR-beta expressing IL-4 differentiated M2 phenotype mouse BMDM cells assessed as reprogramming to M1 phenotype by measuring upregulation of iNOS mRNA expression at 10 nM incubated for 24 hrs by RT-qPCR analysis. The format is functional, cell-based.
Data set [21] in a line: Toxicity against BALB/c mouse xenografted with mouse 4T1 cells assessed as pathological changes in heart at 1 mg/kg, iv qd for 14 days by Hematoxylin-Eosin staining based analysis. It counts as organism-based. The conditions noted are these: in vivo, 336 h, time 14 day.
The test system of another data set is HUVEC. In words: Cytotoxicity against human HUVEC cells assessed as reduction in cell viability incubated for 24 hrs by CCK-8 assay. The format is toxicity, cell-based.
Data set [22] concerns BMDM. In words: Induction of macrophage repolarization in FR-beta expressing IL-4 differentiated M2 phenotype mouse BMDM cells assessed as reprogramming to M1 phenotype by measuring upregulation of TLR7 expression at 10 nM incubated for 24 hrs by western blot analysis. The format is functional, cell-based.
The test system of data set [23] is BMDM. In words: Induction of macrophage repolarization in FR-beta expressing IL-4 differentiated M2 phenotype mouse BMDM cells assessed as reprogramming to M1 phenotype by measuring upregulation of IL-6 level at 10 nM incubated for 24 hrs by ELISA. It counts as functional, cell-based.
The test system of data set [24] is BMDM. In words: Induction of macrophage repolarization in FR-beta expressing IL-4 differentiated M2 phenotype mouse BMDM cells assessed as reprogramming to M1 phenotype by measuring upregulation of IL-6 mRNA expression at 10 nM incubated for 24 hrs by RT-qPCR analysis. The format is functional, cell-based.
In data set [25] the test system is BMDM. In words: Induction of macrophage repolarization in FR-beta expressing IL-4 differentiated M2 phenotype mouse BMDM cells assessed as reprogramming to M1 phenotype by measuring upregulation of MyD88 expression at 10 nM incubated for 24 hrs by western blot analysis. The format is functional, cell-based.
Data set [26] has as its system BMDM. In words: Induction of macrophage repolarization in FR-beta expressing IL-4 differentiated M2 phenotype mouse BMDM cells assessed as reprogramming to M1 phenotype by measuring downregulation of IL-10 level at 10 nM incubated for 24 hrs by ELISA. The format is functional, cell-based.
In data set [27] the test system is BMDM. In words: Induction of macrophage repolarization in FR-beta expressing IL-4 differentiated M2 phenotype mouse BMDM cells assessed as reprogramming to M1 phenotype by measuring TNF-alpha mRNA expression at 10 nM incubated for 24 hrs by RT-qPCR analysis. It counts as functional, cell-based.
In data set [28] the test system is BMDM. In words: Induction of macrophage repolarization in FR-beta expressing IL-4 differentiated M2 phenotype mouse BMDM cells assessed as reprogramming to M1 phenotype by measuring TNF-alpha level at 10 nM incubated for 24 hrs by ELISA. The format is functional, cell-based.
The test system of data set [29] is BMDM. In words: Induction of macrophage repolarization in FR-beta expressing IL-4 differentiated M2 phenotype mouse BMDM cells assessed as reprogramming to M1 phenotype by measuring downregulation of IL-10 mRNA expression at 10 nM incubated for 24 hrs by RT-qPCR analysis. It counts as functional, cell-based.

Active and inactive are the calls of the source. The calls are words filed in the database; no cut-off is given here. Where only a bound is given, the exact number is not on record here.

`Nc1nc2[nH]c(CC(=O)NCC(=O)N[C@@H](CCC(=O)N[C@@H](CS)C(=O)O)C(=O)O)cc2c(=O)[nH]1`: the Activity result with 4T1 [1] is reported as “Non-toxic”.

For `CCCCc1nc2c(N)nc3ccccc3c2n1Cc1ccc(CNC(=O)OCCSSC[C@H](NC(=O)CC[C@H](NC(=O)c2ccc(NCc3cnc4nc(N)[nH]c(=O)c4n3)cc2)C(=O)O)C(=O)O)cc1`, the Activity entry with BMDM [2] is “Active; Less Effective Than Fgt-2,4 Observed”; in data set [3] it was “Non-toxic”; in [4] it was “Non-toxic”; in data set [5], “Non-toxic”; in data set [6] it was “Non-toxic”; in the data set with BMDM [12], “Active; Less Effective Than Fgt-2,4 Observed”. Further, the Activity result in the data set on BMDM [13] was “Active; Less Effective Than Fgt-2,4 Observed”; in data set [14], “Non-toxic”; with BMDM [15], “Active; Less Effective Than Fgt-2,4 Observed”; with BMDM [17], “Active; Less Effective Than Fgt-2,4 Observed”; with 4T1 [1], “Non-toxic”; in [19], “Non-toxic”. Besides, the Activity entry is “Active; Less Effective Than Fgt-2,4 Observed” with BMDM [20], “Non-toxic” in data set [21] and “Non-toxic” with HUVEC. Besides, the remaining at 360 h in data set [7] was less than 95%. Besides, the outcome with 4T1 [8], in the data set on Mus musculus [11] and in the data set with Mus musculus [16] was Active. The result in the data set on Mus musculus [9] was inactive. For the same molecule, the Drug metabolism entry in data set [10] is recorded as “metabolite_detected”. Moreover, the Stability entry in data set [18] (12 h, 5 µM) was “Unstable”.

For the molecule `CCCCc1nc2c(N)nc3ccccc3c2n1Cc1ccc(CNC(=O)OCCSSC[C@H](NC(=O)CC[C@H](NC(=O)c2ccc(CCCCc3cc4c(=O)[nH]c(N)nc4[nH]3)s2)C(=O)O)C(=O)O)cc1`, the Activity result (in data set [3]; in data set [4]; in [5]; in [6]; in [14]; with 4T1 [1]) was “Non-toxic” throughout. For the same molecule, the Activity result (in [19]; in data set [21]; with HUVEC) was “Non-toxic” in each case. Further, the remaining at 360 h in [7] is greater than 95%. The outcome in the data set with 4T1 [8], in the data set on Mus musculus [11] and in the data set with Mus musculus [16] was Active. Besides, in the data set on Mus musculus [9], the outcome was inactive. Further, the Drug metabolism entry in data set [10] is listed as “metabolite_detected”. Besides, the remaining at 12 h, 5 µM in data set [18] was found to be 95%.

For the molecule `Nc1nc(O)c2nc(CNc3ccc(C(=O)N[C@@H](CCC(=O)N[C@@H](CS)C(=O)O)C(=O)O)cc3)cnc2n1`, the Activity entry in the data set with 4T1 [1] is given as “Non-toxic”.

Consider `Nc1nc2[nH]c(CCCCc3ccc(C(=O)N[C@@H](CCC(=O)N[C@@H](CS)C(=O)O)C(=O)O)cc3)cc2c(=O)[nH]1`, for which the result with BMDM [12], in the data set on BMDM [13] and in the data set with BMDM [22] was inactive. Also, in the data set with 4T1 [1], the Activity entry is “Non-toxic”.

For `CCCCc1nc2c(N)nc3ccccc3c2n1Cc1ccc(CNC(=O)OCCSSC[C@H](NC(=O)CC[C@H](NC(=O)CNC(=O)Cc2cc3c(=O)[nH]c(N)nc3[nH]2)C(=O)O)C(=O)O)cc1`, the result in the data set with BMDM [23], in the data set with BMDM [2], in the data set with BMDM [24], with BMDM [25], in the data set on BMDM [26] and with 4T1 [8] was Active. In addition, the result in the data set with Mus musculus [11], in the data set on BMDM [12], in the data set with BMDM [13], in the data set on BMDM [15], with Mus musculus [16] and in the data set with BMDM [17] was Active. For the same molecule, the result in the data set on BMDM [29] and with BMDM [20] was Active. For the same molecule, the Activity entry (in data set [3]; in [4]; in data set [5]; in [6]; in [14]; in the data set with 4T1 [1]) was “Non-toxic” throughout. In addition, the Activity result (in [19]; in data set [21]; in the data set with HUVEC) was “Non-toxic” each time. Moreover, the remaining at 360 h in [7] is greater than 95%. In addition, the outcome in the data set with Mus musculus [9], in the data set with BMDM [27] and with BMDM [28] was inactive. Also, in data set [10], the Drug metabolism result was “metabolite_detected”. In addition, the remaining at 12 h, 5 µM in [18] was determined as 95%.

Consider `Nc1nc2[nH]c(CCCCc3ccc(C(=O)N[C@@H](CCC(=O)N[C@@H](CS)C(=O)O)C(=O)O)s3)cc2c(=O)[nH]1`, for which the Activity result in the data set on 4T1 [1] was “Non-toxic”.
